Measured values published in publication PMC10897598, “TwinF interface inhibitor FP802 stops loss of motor neurons and mitigates disease progression in a mouse model of ALS” (Cell Reports Medicine, 2024).

Tests used:
NMDAR/TRPM4 complex = target: T1, NMDAR/TRPM4 complex (Mus musculus, UniProt Q7TN37); assay: Co-immunoprecipitation of the NMDAR/TRPM4 complex from lumbar spinal cord lysates of treated animals; type: in vivo; details: two weeks after osmotic pump implantation
T1 construct: Lumbar spinal cords were dissected from mice two weeks after ALZET osmotic pump (1002) implantation; from tissue; host or cells: lumbar spinal cord of wild-type mice treated in vivo with vehicle or FP802
T1 sequence (Q7TN37 whole entry, one chain of several): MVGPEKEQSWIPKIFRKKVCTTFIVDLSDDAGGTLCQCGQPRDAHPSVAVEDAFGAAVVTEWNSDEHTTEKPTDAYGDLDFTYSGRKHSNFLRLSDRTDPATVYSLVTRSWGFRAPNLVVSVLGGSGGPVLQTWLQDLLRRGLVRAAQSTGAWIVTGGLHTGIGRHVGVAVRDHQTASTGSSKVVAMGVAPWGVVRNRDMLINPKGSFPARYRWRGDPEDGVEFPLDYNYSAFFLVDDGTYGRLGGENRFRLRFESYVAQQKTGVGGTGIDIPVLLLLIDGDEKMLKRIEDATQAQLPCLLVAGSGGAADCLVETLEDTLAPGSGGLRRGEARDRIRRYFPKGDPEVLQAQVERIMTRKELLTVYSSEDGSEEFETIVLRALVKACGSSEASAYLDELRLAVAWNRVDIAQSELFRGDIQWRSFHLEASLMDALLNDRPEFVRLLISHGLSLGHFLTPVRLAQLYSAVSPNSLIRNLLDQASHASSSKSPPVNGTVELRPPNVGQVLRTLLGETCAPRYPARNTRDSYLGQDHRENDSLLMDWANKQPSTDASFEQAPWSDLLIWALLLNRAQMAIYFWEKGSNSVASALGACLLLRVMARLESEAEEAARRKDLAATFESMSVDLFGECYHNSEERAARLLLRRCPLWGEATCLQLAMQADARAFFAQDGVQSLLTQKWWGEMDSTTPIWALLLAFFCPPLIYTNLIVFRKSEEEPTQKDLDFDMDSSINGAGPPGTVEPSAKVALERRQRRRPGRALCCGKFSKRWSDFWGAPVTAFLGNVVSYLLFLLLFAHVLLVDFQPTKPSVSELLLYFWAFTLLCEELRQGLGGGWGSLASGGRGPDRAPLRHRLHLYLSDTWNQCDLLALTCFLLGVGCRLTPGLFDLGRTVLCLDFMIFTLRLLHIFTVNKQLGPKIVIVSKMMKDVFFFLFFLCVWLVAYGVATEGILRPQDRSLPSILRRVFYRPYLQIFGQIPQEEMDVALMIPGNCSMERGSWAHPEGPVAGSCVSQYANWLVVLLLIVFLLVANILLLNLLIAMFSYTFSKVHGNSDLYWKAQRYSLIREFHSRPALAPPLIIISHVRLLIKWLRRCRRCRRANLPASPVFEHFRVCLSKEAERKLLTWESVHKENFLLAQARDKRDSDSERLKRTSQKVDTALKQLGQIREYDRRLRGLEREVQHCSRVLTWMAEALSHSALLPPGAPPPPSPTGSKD
Experimental: A total of 83 heterozygous SOD1^G93A and 22 wild-type littermates were employed in this study. Eight WT and 12 SOD1^G93A mice were used to determine the EAAT2 protein levels in the spinal cord. Three SOD1^G93A mice were treated with FP802 to explore the concentration of FP802 in the spinal cord. Four SOD1^G93A mice were used to test the tolerability of mice to subcutaneously ALZET osmotic pump (type 2004) implantation with FP802 that allowed a continuous and constant supply of compound to the animals for 4 weeks. Eight wild-type mice were used to explore the disruption of the NMDAR/TRPM4 death signaling complex by FP802. In total, 52 SOD1^G93A mice were treated with FP802 or vehicle via ALZET osmotic pump from week 15 for 30 days (four cohorts). It was not possible to extend the treatment beyond the 30 days application period because the poor health state of many animals was incompatible with the anesthesia required for surgical implantation of a second osmotic pump. The number of animals used for experiments was specified in the figure legends. […]
All procedures for immunoprecipitation were carried out at 4°C as described before.[20] […] Protein concentrations of the supernatants were measured using the Pierce BCA Protein Assay Kit. […]

SOD1^G93A mice = assay: Post-onset treatment of the SOD1G93A ALS mouse model; type: in vivo
Text: Heterozygous SOD1^G93A transgenic mice expressing human SOD1^G93A mutant on a C57BL/6 background (Jackson Laboratory, 004435, RRID:IMSR_JAX:004435) were used in this study.[24]^,[34] Heterozygosity was maintained by mating heterozygous transgenic males with C57BL/6 wild-type females. The animals were provided by the interdisciplinary neurobehavioral core (INBC) at Heidelberg University. Only male wild-type mice and male transgenic mice were used in the experiments. They were housed in groups (maximally three mice/cage) in the INBC, where all behavior experiments were performed. All mice were kept in standard cages (15 cm × 21 cm × 13.5 cm) on a 12:12 h light:dark cycle with ad libitum access to food, water, and nesting material. The treatments were randomly allocated to mice within litter blocks. The experimenter was blinded to the experimental group from the implantation until all analyses were done.
A total of 83 heterozygous SOD1^G93A and 22 wild-type littermates were employed in this study. Eight WT and 12 SOD1^G93A mice were used to determine the EAAT2 protein levels in the spinal cord. Three SOD1^G93A mice were treated with FP802 to explore the concentration of FP802 in the spinal cord. Four SOD1^G93A mice were used to test the tolerability of mice to subcutaneously ALZET osmotic pump (type 2004) implantation with FP802 that allowed a continuous and constant supply of compound to the animals for 4 weeks. Eight wild-type mice were used to explore the disruption of the NMDAR/TRPM4 death signaling complex by FP802. In total, 52 SOD1^G93A mice were treated with FP802 or vehicle via ALZET osmotic pump from week 15 for 30 days (four cohorts). It was not possible to extend the treatment beyond the 30 days application period because the poor health state of many animals was incompatible with the anesthesia required for surgical implantation of a second osmotic pump. The number of animals used for experiments was specified in the figure legends. […] In addition, six wild-type littermates and 12 SOD1^G93A mice were used at week 19 and week 15, respectively, for the analysis of motor neuron survival and serum NfL levels. For the analysis of motor neuron survival, three mice (two from wild-type littermates, one from vehicle-treated SOD1^G93A mice) were excluded from the motor neuron survival because of the loss of sample during preparation.
Bodyweight and neurological scores were examined weekly starting at the onset of symptoms at week 15, which has been defined by previous studies with the same mouse line.[33]^,[34] Neurological scores of the mice were recorded as 0–4 based on the behavior of their hind limbs.[46] The humane endpoint was defined as the mouse’s inability to rectify itself in 30 s and examined daily from week 19 without knowing the treatment group.
Before experiments, mice were habituated to the experimenter and testing room by gentle handling for 1 min in 3 consecutive days. A brief video was taken in the behavior room where the SOD1^G93A mice were placed in an open chamber. On the experimental day, the mice were placed into an open arena (50 cm × 50 cm × 50 cm) for a total of 10 min experiment. The total traveled distance of each mouse was traced and analyzed with SYGNIS software, and also the rearing time was reordered without knowledge of the treatment.
The survival of motor neurons was examined by quantifying the motor neuron marker, choline acetyltransferase (ChAT)-positive neurons, and the inflammation was examined by quantifying the microglial cell marker, ionized calcium binding adaptor molecule 1 (Iba1), in the ventral horn of lumbar spinal cord (L3-L5). All control mice and SOD1 mice were perfused with 20 mL PBS followed by 20 mL of 4% paraformaldehyde in PBS. The lumbar spinal cord was dissected and post-fixed in the same solution for an additional 10 min, followed by 24 h incubation with 30% sucrose solution in PBS. […]

[1] = FP802 for 4 weeks from week 15, vs vehicle

CCN(CCN)Cc1cccc(Cl)c1 [FP802]
interaction of TRPM4 with the NMDAR subunit GluN2B (co-immunoprecipitation) (NMDAR/TRPM4 complex): disrupted
EAAT/GLT-1 expression in lumbar spinal cord (SOD1^G93A mice; 40 mg/kg/day for 4 weeks from week 15, immunoblot): no significant effect
neurological scores (SOD1^G93A mice; FP802 for 4 weeks from week 15 (onset), s.c. osmotic pump, vs vehicle): significantly better
body weight losses (SOD1^G93A mice; [1]): lower
motor performance, total distances traveled in an open field (SOD1^G93A mice; [1]): significantly improved
rearing behavior in open field (SOD1^G93A mice; [1]): frequent rearing behavior
survival median (lifespan) (SOD1^G93A mice; FP802 for 4 weeks starting at week 15, vehicle 151 days): 164 days
neuroinflammatory response, microglia marker Iba1 (SOD1^G93A mice; ventral horn of lumbar spinal cord, week 19): not affected
serum levels of neurofilament light (NfL) chain (SOD1^G93A mice; week 19, treatment from week 15): reduction
soma sizes of lumbar spinal motor neurons (SOD1^G93A mice; week 19, vs control-treated SOD1G93A mice): larger
number of lumbar spinal motor neurons (ChAT-positive) (SOD1^G93A mice; week 19 vs week 15, treatment from week 15): no additional death
